Patent publication US20190352276A1, “INHIBITORS OF BRUTON'S TYROSINE KINASE” (Joint Stock Company "Biocad", priority 2016, published 2019)

Experiments:
[1] = system: Z-138 (mantle cell lymphoma); test: Antiproliferative activity, Z-138 cells (Alamar Blue); format: cell-based; details: Homo sapiens, Table 10, 72 h, average of several tests
Procedure: (§1) Antiproliferative activity of BTK inhibitors was measured in cell-based bioassay on B-cells cultures: Mino (mantle cell lymphoma, ATCC® CRL-3000™), Z-138 (mantle cell lymphoma, ATCC® CRL-3001™) and DOHH2 (follicular lymphoma, Creative Bioarray CSC-C0219) using cell viability reagent Alamar Blue (Invitrogen, #DAL 1100). Cells were cultured in 10% FB S-supplemented (HyClone, #SH3008803/Gibco, #16140-071) RPMI-1640 (PanEco, #S330p) for at least 1 passage after thawing, washed with PBS and passaged in 96-well culture plates (Corning, #3599) with growth medium with 10% FBS (HyClone, #SH3008803/Gibco, #16140-071) and antibiotic (50 μg/ml of gentamicin (Biolot, #1.3.16))≈3*10^4 cells in 50 μl of medium per well.
(§2) The compounds were dissolved in DMSO and diluted with the assay medium to final concentrations ranging from […]. 150 μl of each diluted compound were then added to each well (final concentration of DMSO was less than 1%) and incubated at 37° C. in an incubator under 5% of CO2 for 72 h. After incubation, 20 μl of Alamar Blue reagent (Invitrogen, #DAL1100) were added to each well. The plates were shaked on an orbital shaker (Biosan, Latvia) and then incubated for 14-16 hours at 37° C. in the incubator.
(§3) The number of living cells were estimated, measuring the fluorescence signal at the excitation wavelength (REx) of 540 nm and the emission wavelength (λEm) of 590 nm on a microplate reader (Tecan Infinite M200Pro, Switzerland).
(§4) For each compound, IC50 was calculated using Magellan 7.2 software (Tecan, Switzerland) approximating experimental points by four-parameter logistic model with the optimization by Levenberg-Marquardt.

[2] = system: Mino (mantle cell lymphoma); test: Antiproliferative activity, Mino cells (Alamar Blue); format: cell-based; details: Homo sapiens, Table 10, 72 h, average of several tests
Procedure: as §1, §2, §3, §4

[3] = Chemical stability in artificial gastric fluid (SGF without enzymes); details: 10 μM in SGF without enzymes, pH=1.4, 37° C.
[4] = system: HepG2 cells (hepatocellular carcinoma); test: General cytotoxicity on HepG2 cells (CC50; therapeutic index CC50 HepG2/IC50 Mino); format: cell-based; details: Table 10; therapeutic index
Procedure: (§5) The CC50 values were determined in the test for General cytotoxicity on HepG2 cells (hepatocellular carcinoma, ATCC® HB-8065™). 2*10^4 cells (in 50 μl) per well were seeded in 96-well plates (Corning, #3599) in DMEM medium (PanEco, #S420p), after 24 h of incubation 150 μl of candidate compounds were added to each well in the range of final concentrations from 200 μM to 4 μM and the plate was incubated in a total volume of 200 μl for 72 hours. Viability of the cells was assessed using Alamar Blue dye (Invitrogen, #DAL 1100). CC50 was determined similarly (table 10).
(§6) The relationship between toxic (CC50) and a therapeutic (IC50) effects of the dose is the therapeutic index, which can be expressed as the ratio between CC50 (HepG2) (general cytotoxicity of the candidate) and IC50 (Mino) (antiproliferative activity on the target cells): […]

[5] = as above; format: cell-based; details: human, HepG2 cells (hepatocellular carcinoma); Table 10; 72 hours, Alamar Blue; average of several tests
Procedure: as §5, §6

Row | Structure (SMILES) | IC50 [1] | IC50 [2] | Amount of substance in the sample in % (chemical stability) [3] | CC50 (HepG2)/IC50 (Mino) [4] | CC50 at 72 h [5]
1 | C=CC(=O)N1CCC[C@@H](n2nc(-c3ccc(-n4ccc(=O)cc4)cc3)c3c(N)ncc(Cl)c32)C1 [BCD-BTK-9, (R)-1-(4-(1-(1-acryloylpiperidin-3-yl)-4-amino-7-chloro-1H-pyrazolo[4,3-c]pyridin-3-yl)phenyl)pyridin-4(1H)-one] | 44.1 µM | 23.5 µM | 100.0% | >4.25 | > 100 µM
2 | C=CC(=O)N1CCC[C@@H](n2nc(-c3ccc(-n4ccc(=O)cc4)nc3)c3cncc(Cl)c32)C1 [BCD-BTK-56, (R)-5′-(1-(1-acryloylpiperidin-3-yl)-7-chloro-1H-pyrazolo[4,3-c]pyridin-3-yl)-4H-[1,2′-bipyridin]-4-one] | 30.5 µM | 32.5 µM | 99.0% | >1.54 | > 50 µM
3 | C=CC(=O)N1CCC[C@@H](n2nc(-c3ccc(-n4ccc(=O)cc4)cc3)c3cc(N)c(C)nc32)C1 [BCD-BTK-119, (R)-1-(4-(1-(1-acryloylpiperidin-3-yl)-5-amino-6-methyl-1H-pyrazolo[3,4-b]pyridin-3-yl)phenyl) pyridin-4(1H)-one] | 25.5 µM | 12.3 µM | 100.0% | >8.16 | > 100 µM
4 | C=CC(=O)N1CCC[C@@H](n2nc(-c3ccc(-n4ccc(=O)cc4)cc3)c3c(Cl)c(O)cnc32)C1 [BCD-BTK-13, (R)-1-(4-(1-(1-acryloylpiperidin-3-yl)-4-chloro-5-hydroxy-1H-pyrazolo[3,4-b]pyridin-3-yl)phenyl)pyridin-4(1H)-one] | > 50 µM | 37.1 µM | 91.0% | >2.70 | > 100 µM
5 | C=CC(=O)N1CCC[C@@H](n2nc(-c3ccc(-n4ccc(=O)cc4)cc3)c3cc(O)cc(C#N)c32)C1 [BCD-BTK-122, (R)-1-(1-acryloylpiperidin-3-yl)-5-hydroxy-3-(4-(4-oxopyridin-1(4H)-yl)phenyl)-1H-indazol-7-carbonitrile] | 36.5 µM | 35.6 µM | 97.5% | >2.81 | > 100 µM
6 | C=CC(=O)N1CCC[C@@H](n2nc(-c3ccc(Oc4ccncc4)cc3)c3cc(O)cc(C#N)c32)C1 [BCD-BTK-137] | 25.6 µM | 11.6 µM | 94.3% | 5.70 | 65.9 µM
7 | C=CC(=O)N1CCC[C@@H](n2nc(-c3ccc(C(=O)Nc4cc(C(C)(F)F)ccn4)cc3)c3cncc(C#N)c32)C1 [BCD-BTK-224, 4-{7-cyano-1-[(3R)-1-(prop-2-enoyl)piperidin-3-yl]-1H-pyrazolo[4,3-c]pyridin-3-yl}-N-[4-(1,1-difluoroethyl)pyridin-2-yl]benzamide] | > 50 µM | 11 µM | 100% | 6.63 | 73.1 µM
8 | C=CC(=O)N1CCC[C@@H](n2nc(-c3ccc(-n4ccc(=O)cc4)cc3)c3cncc(Cl)c32)C1 [BCD-BTK-30, (R)-1-(4-(1-(1-acryloylpiperidin-3-yl)-7-chloro-1H-pyrazolo[4,3-c]pyridin-3-yl)phenyl)pyridin-4(1H)-one] | 22.7 µM | 15.6 µM | 97.7% | 3.94 | 61.5 µM
9 | C=CC(=O)N1CCC[C@@H](n2nc(-c3ccc(C(=O)Nc4cc(C(F)(F)CC)ccn4)cc3)c3cncc(C#N)c32)C1 [BCD-BTK-219, 4-{7-cyano-1-[1-(prop-2-enoyl)piperidin-3-yl]-1H-pyrazolo[4,3-c]pyridin-3-yl}-N-[4-(1,1-difluoropropyl)pyridin-2-yl] benzamide] | ~50 µM | 10.1 µM | 96.7% | >9.95 | > 100 µM
10 | C=CC(=O)N1CCC[C@@H](n2nc(-c3ccc(Oc4ccncc4)cc3)c3cncc(C(N)=O)c32)C1 [BCD-BTK-140, (R)-1-(1-acryloylpiperidin-3-yl)-3-(4-(pyridin-4-yloxy)phenyl)-1H-pyrazolo[4,3-c]pyridin-7-carboxamide] | > 50 µM | 16.9 µM | 99.4% | >5.93 | > 100 µM
11 | C=CC(=O)Nc1cc2c(-c3ccc(-n4ccc(=O)cc4)cc3)nn([C@@H]3CCCN(C(=O)C=C)C3)c2nc1C [BCD-BTK-117, (R)-N-(1-(1-acryloylpiperidin-3-yl)-6-methyl-3-(4-(4-oxopyridin-1(4H)-yl)phenyl)-1H-pyrazolo[3,4-b]pyridin5-yl)acrylamide] | 23.4 µM | 13.3 µM | 99.7% | >3.76 | > 50 µM

Further lines, with some results ahead:

Row | IC50 [1] | IC50 [2] | Amount of substance in the sample in % (chemical stability) [3] | Structure (SMILES) | CC50 (HepG2)/IC50 (Mino) [4] | CC50 at 72 h [5]
12 | 19.6 µM | 16 µM | 99.7% | C=CC(=O)N1CCC[C@@H](n2nc(-c3ccc(-n4ccc(=O)cc4)nc3)c3c(N)ncc(Cl)c32)C1 [BCD-BTK-76, (R)-5′-(1-(1-acryloylpiperidin-3-yl)-4-amino-7-chloro-1H-pyrazolo[4,3-c]pyridin-3-yl)-4H-[1,2′-bipyridin]-4-one] | >6.27 | > 100 µM
13 | 7.84 µM | 13.7 µM | 95.4% | C=CC(=O)Oc1cc(C#N)c2c(c1)c(-c1ccc(-n3ccc(=O)cc3)cc1)nn2[C@@H]1CCCN(C(=O)C=C)C1 [BCD-BTK-118, (R)-1-(1-acryloylpiperidin-3-yl)-7-cyano-3-(4-(4-oxopyridin-1(4H)-yl)phenyl)-1H-indazol-5-yl acrylate] | 4.83 | 66.2 µM
14 | 17.6 µM | 21.9 µM | 98.7% | C=CC(=O)N1CCC[C@@H](n2nc(-c3cnc(-n4ccc(=O)cc4)nc3)c3c(N)ncc(Cl)c32)C1 [BCD-BTK-74, (R)-1-(5-(1-(1-acryloylpiperidin-3-yl)-4-amino-7-chloro-1H-pyrazolo[4,3-c]pyridin-3-yl)pyrimidin-2-yl)pyridin-4(1H)-one] | 4.57 | 100 µM
15 | 115 µM | 27.9 µM | 100% | C=CC(=O)N1CC[C@@H](Cn2nc(-c3ccc(C(=O)Nc4ccccn4)cc3)c3cncc(Cl)c32)C1 [BCD-BTK-284, (R)-4-(1-((1-acryloylpyrrolidin-3-yl)methyl)-7-chloro-1H-pyrazolo[4,3-c]pyridin-3-yl)-N-(pyridin-2-yl)benzamide] | >3.59 | > 100 µM
16 | > 34.6 µM | 10.1 µM | 100% | C=CC(=O)N1CC[C@H](Cn2nc(-c3ccc(C(=O)Nc4ccccn4)cc3)c3cncc(Cl)c32)C1 [BCD-BTK-285, (S)-4-(1-((1-acryloylpyrrolidin-3-yl)methyl)-7-chloro-1H-pyrazolo[4,3-c]pyridin-3-yl)-N-(pyridin-2-yl)benzamide] | >9.91 | > 100 µM
17 | 14.3 µM | 4.92 µM | 97.8% | C=CC(=O)N1CC(Cn2nc(-c3ccc(Oc4ccncc4)cc3)c3cncc(Cl)c32)C1 [BCD-BTK-264, 1-(3-((7-chloro-3-(4-(pyridin-4-yloxy)phenyl)-1H-pyrazolo[4,3-c]pyridin-1-yl)methyl)azetidin-1-yl)prop-2-en-1-one] | 2.13 | 10.5 µM
